The source of these data is paper PMC6376162, “HEXIM1 Peptide Exhibits Antimicrobial Activity Against Antibiotic Resistant Bacteria Through Guidance of Cell Penetrating Peptide” (Frontiers in Microbiology, 2019).

Values after ≈ are worked out from the molar mass of the structure shown. Residues, ends and D or L forms follow the SMILES beside them.

Data set [1] deals with P. aeruginosa 544. Format: cell-based, Pseudomonas aeruginosa. As to conditions: 544, 20 h. As for the experimental part:
(§1) Bacterial strains were either purchased from American Type Culture Collection (ATCC, United States) or provided by National University Hospital, Singapore. Prior to assays, all bacteria, except for Enterococcus faecalis, were grown overnight to stationary phase at 37°C in Luria Bertani (LB) broth (Novagen, Germany). The overnight cultures were 10-fold diluted in fresh cation-adjusted Mueller Hinton II broth (MHBII) (Becton Dickinson, United States) and grown for additional few hours at 37°C to obtain mid-log phase culture. E. faecalis strains were grown in M17 broth (Becton Dickenson, United States) for both overnight and mid-log phase culturing. Human keratinocyte cell line, HaCaT, was purchased from Creative Bioarray (United States) and cultured in Dulbecco’s Modified Eagle’s medium with 4.5 g/L glucose, 2 mM L-glutamine, and 10% fetal bovine serum.
(§2) Minimum inhibition concentrations (MICs) were determined by using broth microdilution method in a 96-well microtiter plate according to guidelines of the Clinical and Laboratory Standards Institute ([CLSI, 2012]). Briefly, mid-log phase cultures were diluted with MHBII and added to wells containing serially diluted peptides to give final cell concentration of 5 × 10^5 cells ml^−1. Peptides were prepared in twofold serial dilution series to give a final concentration range from 2 to 128 μM. Cecropin P1 (CECP1) and Cap11-1-18m^2 (CapM2) treated cells were used as positive controls, while untreated cells were used as a negative control.
(§3) To further assess the potency of peptides, wells with no visible growth from MIC tests were subsequently plated on LB agar plates and incubated overnight at 37°C. […] Both MIC and MBC assays were conducted on three to five separate occasions and if results were within one doubling dilutions of each other, the highest reading was recorded for analysis.

For data set [2], the system named is E. faecalis VRE. It counts as cell-based, Enterococcus faecalis. The following applies: 20 h. On the procedure:
as §1, §2, §3

Data set [3] relates to S. aureus 43300. It counts as cell-based, Staphylococcus aureus. The following applies: 43300, 20 h. On the procedure:
as §1, §2, §3

The subject of data set [4] is Enterococcus faecalis SEN. Format: cell-based. The following applies: 20 h. On the procedure: as §1, §2, §3
Data set [5] has as its system Escherichia coli 25922. It counts as cell-based. As to conditions: 25922, 20 h. On the procedure: as §1, §2, §3
The test system of data set [6] is Escherichia coli BAA2523. It counts as cell-based. As to conditions: BAA2523, 20 h. On the procedure: as §1, §2, §3
In data set [7] the test system is Pseudomonas aeruginosa 27853. Format: cell-based. The following applies: 27853, 20 h. As for the experimental part: as §1, §2, §3
For data set [8], the system named is Staphylococcus aureus 29213. Format: cell-based. The following applies: 29213, 20 h. As for the experimental part: as §1, §2, §3
Data set [9] relates to HaCaT human keratinocyte cell line. Briefly: Viability assay for mammalian cells (CellTiter-Glo). Format: cell-based. The following applies: overnight; for cytotoxicity against HaCat cells: 30 μM; for toxicity against HaCaT cells at the highest concentration: 100 μM. As for the experimental part:
as §1
HaCat cells (1 × 10^5 cells mL^−1) were seeded in a 96-well clear-bottomed white plate (Corning) in Dulbecco’s Modified Eagle’s medium with 4.5 g/L glucose, 2 mM L-glutamine, and 10% fetal bovine serum and incubated overnight at 37°C. On the following day, cells were treated with the indicated peptides at serial-diluted concentrations and incubated overnight. CellTiter-Glo reagent (Promega) was utilized to determine the cell viability based on the manufacturer’s instructions.

For data set [10], the system named is panel of antibiotic sensitive and resistant bacteria. It counts as cell-based. As to conditions: 20 h. On the procedure:
as §1, §2, §3

For the compound `CC[C@H](C)[C@H](NC(=O)CNC(=O)[C@H](CCC(=O)O)NC(=O)[C@H](CO)NC(=O)[C@@H](NC(=O)[C@H](CCCNC(=N)N)NC(=O)[C@H](CCCCN)NC(=O)[C@H](CCCCN)NC(=O)[C@H](C)NC(=O)[C@H](CO)NC(=O)[C@H](CC(N)=O)NC(=O)[C@H](CCC(=O)O)NC(=O)[C@H](CC(C)C)NC(=O)[C@H](CCCCN)NC(=O)[C@H](CCCCN)NC(=O)[C@H](C)NC(=O)[C@@H](NC(=O)[C@H](CCCCN)NC(=O)[C@H](CO)NC(=O)[C@H](CC(C)C)NC(=O)[C@H](Cc1c[nH]c2ccccc12)NC(=O)[C@@H](N)CO)[C@@H](C)O)[C@@H](C)CC)C(=O)N[C@@H](C)C(=O)N[C@H](C(=O)N[C@@H](C)C(=O)N[C@H](C(=O)N[C@@H](CCC(N)=O)C(=O)NCC(=O)NCC(=O)N1CCC[C@H]1C(=O)N[C@@H](CCCNC(=N)N)C(=O)O)[C@@H](C)CC)[C@@H](C)CC` [CECP1, Cecropin P1, reference compound] (H-SWLSKTAKKLENSAKKRISEGIAIAIQGGPR-OH), the MBC was 32 µM (≈ 107 µg/mL) in data set [1]; over 128 µM in data set [2]; over 128 µM in data set [3]; over 128 µM in data set [4]; 4 µM (≈ 13.4 µg/mL) in data set [5]; 64 µM (≈ 214 µg/mL) in data set [6]. Also, the minimal bactericidal concentration (MBC) in data set [7] is 32 µM (≈ 107 µg/mL); in data set [8], over 128 µM. Further, the minimum inhibitory concentration (MIC) in [1] was 16 µM (≈ 53.4 µg/mL); in [2], over 128 µM; in data set [3], over 128 µM; in data set [4], over 128 µM; in data set [5] it was 4 µM (≈ 13.4 µg/mL); in data set [6] it was 64 µM (≈ 214 µg/mL). Further, the MIC was 16 µM (≈ 53.4 µg/mL) in data set [7] and over 128 µM in data set [8].

Turning to `CC[C@H](C)[C@H](NC(=O)[C@H](CC(C)C)NC(=O)[C@H](CCCCN)NC(=O)[C@H](CC(C)C)NC(=O)[C@H](CC(C)C)NC(=O)[C@H](CCCCN)NC(=O)[C@H](CCCNC(=N)N)NC(=O)[C@H](Cc1ccccc1)NC(=O)[C@H](CC(C)C)NC(=O)[C@H](CCCCN)NC(=O)[C@H](CCCNC(=N)N)NC(=O)[C@H](CC(C)C)NC(=O)[C@@H](N)CCCCN)C(=O)N[C@@H](CCCNC(=N)N)C(=O)N[C@@H](CCCCN)C(=O)N[C@@H](CC(C)C)C(=O)N[C@@H](CC(C)C)C(=O)N[C@@H](CCCNC(=N)N)C(=O)O` [CapM2, Cap11-1-18m^2, reference compound] (H-KLRKLFRKLLKLIRKLLR-OH), the minimal bactericidal concentration (MBC) in data set [1] turned out to be 32 µM (≈ 74.8 µg/mL); in data set [2], 16 µM (≈ 37.4 µg/mL); in data set [3], 16 µM (≈ 37.4 µg/mL); in data set [4], 16 µM (≈ 37.4 µg/mL); in data set [5], 32 µM (≈ 74.8 µg/mL); in data set [6] it was 64 µM (≈ 150 µg/mL). Also, the MBC in [7] and in data set [8] was 32 µM (≈ 74.8 µg/mL) each time. Further, the MIC amounted to 16 µM (≈ 37.4 µg/mL) in data set [1]; 16 µM (≈ 37.4 µg/mL) in data set [2]; 16 µM (≈ 37.4 µg/mL) in [3]; 16 µM (≈ 37.4 µg/mL) in [4]; 16 µM (≈ 37.4 µg/mL) in data set [5]; 32 µM (≈ 74.8 µg/mL) in [6]. For the same compound, the MIC in data set [7] and in data set [8] was 16 µM (≈ 37.4 µg/mL) each time.

With `CC[C@H](C)[C@H](NC(=O)[C@H](CCCCN)NC(=O)[C@@H](NC(=O)[C@H](CCC(N)=O)NC(=O)[C@@H](N)CCCNC(=N)N)[C@@H](C)CC)C(=O)N[C@@H](Cc1c[nH]c2ccccc12)C(=O)N[C@@H](Cc1ccccc1)C(=O)N[C@@H](CCC(N)=O)C(=O)N[C@@H](CC(N)=O)C(=O)N[C@@H](CCCNC(=N)N)C(=O)N[C@@H](CCCNC(=N)N)C(=O)N[C@@H](Cc1c[nH]c2ccccc12)C(=O)NCC(=O)NCC(=O)N[C@@H](CCC(N)=O)C(=O)N[C@@H](CC(C)C)C(=O)NCC(=O)N[C@@H](CCCCN)C(=O)N[C@@H](CCCCN)C(=O)N[C@@H](CCCCN)C(=O)N[C@@H](Cc1c[nH]cn1)C(=O)N[C@@H](CCCNC(=N)N)C(=O)N[C@@H](CCCNC(=N)N)C(=O)N[C@@H](CCCNC(=N)N)C(=O)N1CCC[C@H]1C(=O)N[C@@H](CO)C(=O)N[C@@H](CCCCN)C(=O)N[C@@H](CCCCN)C(=O)N[C@@H](CCCCN)C(=O)N[C@@H](CCCNC(=N)N)C(=O)N[C@@H](Cc1c[nH]cn1)C(=O)N[C@@H](Cc1c[nH]c2ccccc12)C(=O)O` [Pen-BR] (H-RQIKIWFQNRRWGGQLGKKKHRRRPSKKKRHW-OH), in data set [9], the “cytotoxicity against HaCat cells” value is listed as “little or no cytotoxicity” and the “toxicity against HaCaT cells at the highest concentration” value is on record as “toxic activity”. Besides, the “effect on HaCaT cells under lower concentrations” value in data set [9] (below 100 μM (10, 30, 50 μM)) is “did not cause any significant effects”.

Consider `CC[C@H](C)[C@H](NC(=O)[C@H](CCCCN)NC(=O)[C@@H](NC(=O)[C@H](CCC(N)=O)NC(=O)[C@@H](N)CCCNC(=N)N)[C@@H](C)CC)C(=O)N[C@@H](Cc1c[nH]c2ccccc12)C(=O)N[C@@H](Cc1ccccc1)C(=O)N[C@@H](CCC(N)=O)C(=O)N[C@@H](CC(N)=O)C(=O)N[C@@H](CCCNC(=N)N)C(=O)N[C@@H](CCCNC(=N)N)C(=O)N[C@@H](Cc1c[nH]c2ccccc12)C(=O)NCC(=O)NCC(=O)N[C@@H](CCC(N)=O)C(=O)N[C@@H](CC(C)C)C(=O)NCC(=O)N[C@@H](CCCNC(=N)N)C(=O)N[C@@H](CCCNC(=N)N)C(=O)N[C@@H](CCCNC(=N)N)C(=O)N[C@@H](Cc1c[nH]cn1)C(=O)N[C@@H](CCCNC(=N)N)C(=O)N[C@@H](CCCNC(=N)N)C(=O)N[C@@H](CCCNC(=N)N)C(=O)N1CCC[C@H]1C(=O)N[C@@H](CO)C(=O)N[C@@H](CCCNC(=N)N)C(=O)N[C@@H](CCCNC(=N)N)C(=O)N[C@@H](CCCNC(=N)N)C(=O)N[C@@H](CCCNC(=N)N)C(=O)N[C@@H](Cc1c[nH]cn1)C(=O)N[C@@H](Cc1c[nH]c2ccccc12)C(=O)O` [Pen-RRR] (H-RQIKIWFQNRRWGGQLGRRRHRRRPSRRRRHW-OH), for which, in data set [9], the “cytotoxicity against HaCat cells” value was “little or no cytotoxicity” and the “toxicity against HaCaT cells at the highest concentration” value was “toxic activity”.

As to `CC(C)C[C@H](NC(=O)[C@@H](N)CCC(N)=O)C(=O)NCC(=O)N[C@@H](CCCNC(=N)N)C(=O)N[C@@H](CCCNC(=N)N)C(=O)N[C@@H](CCCNC(=N)N)C(=O)N[C@@H](Cc1c[nH]cn1)C(=O)N[C@@H](CCCNC(=N)N)C(=O)N[C@@H](CCCNC(=N)N)C(=O)N[C@@H](CCCNC(=N)N)C(=O)N1CCC[C@H]1C(=O)N[C@@H](CO)C(=O)N[C@@H](CCCNC(=N)N)C(=O)N[C@@H](CCCNC(=N)N)C(=O)N[C@@H](CCCNC(=N)N)C(=O)N[C@@H](CCCNC(=N)N)C(=O)N[C@@H](Cc1c[nH]cn1)C(=O)N[C@@H](Cc1c[nH]c2ccccc12)C(=O)O` [BR-RRR12] (H-QLGRRRHRRRPSRRRRHW-OH), the MBC is over 128 µM in data set [1]; over 128 µM in data set [2]; over 128 µM in [4]; 64 µM (≈ 161 µg/mL) in data set [5]; over 128 µM in data set [6]; over 128 µM in data set [7]. In [8], this compound displayed an MBC of over 128 µM. Further, the MIC is 16 µM (≈ 40.4 µg/mL) in data set [2]; 16 µM (≈ 40.4 µg/mL) in [3]; 32 µM (≈ 80.7 µg/mL) in [4]; 64 µM (≈ 161 µg/mL) in data set [5]; over 128 µM in data set [6]; over 128 µM in data set [7]. In data set [8], the MIC came to 32 µM (≈ 80.7 µg/mL). Besides, in data set [10], the “MICs (range over inhibited strains)” value was in the range of 16 to 64 µM.
